We go through three molecules from patent US20020142347A1, “Biosensor” (BIOSENSOR ApS, priority 2000, published 2002).

Like-named read-outs stand apart in the source and are kept apart here.

The target of assay [1] is T1, FACI-24 (Bos taurus, UniProt P07107, M25C).
T1 construct: made in house; host or cells: E. coli BL21(DE3)pLysS, pET3a vector
T1 sequence (P07107 2-87 M25C): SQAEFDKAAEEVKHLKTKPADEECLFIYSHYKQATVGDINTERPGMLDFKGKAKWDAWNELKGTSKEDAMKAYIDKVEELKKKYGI
Put plainly: Fluorescence emission change of FACI-24 on titration with CoA and acyl-CoA esters. Format: binding, bovine. Particulars: emission maximum without ligand 510 nm; excitation 400 nm. As for the experimental part: (§1) Quantitative determination of binding affinities (KD) were performed by isothermal titration micro calorimetry as previously described (Faergeman et. al., 1996; Biochemistry 35, 14118-14126). Qualitative evaluation of relative binding affinities were determined by isoelectrical focusing using the Pharmacia Fast Gel system according to the prescriptions given by the manufacture. Fluorescence emission changes induced by acyl-CoA binding to badan modified protein were determined as follows: 5 μl portions of acyl-CoAs were added from stock solutions disolved in binding buffer, (10 mM Hepes, 150 mM NaCL, 1 mM NaHPO4, pH 7.4) containing 3.4 μM Badan derivatized protein to a 1 ml 3.4 μM solution of the Badan derivatized ACBP in the same buffer. The fluorescence emission was measured on a SPEX FLOUROLOG (Industries Inc, Edison N.J., USA) with excitation at 400 nm and emission scan from 400 nm to 550 nm. The concentration of acyl-CoA in the aqueous phase was determined from the fluorescence emission sensitivities at 495 and 470 nm repectively essentially by the method described by (Grynkiewickz et. al.,1985, J. Biol. Chem. 260, 3440-3450) according to which:
(§2) Fluorescence titration emission spectra from 415 nm to 550 nm (excitation at 400 nm) were performed for CoA, C4:0-, C8:0-, C12:0-, C16:0-, and C20:0-CoA with all four mutated and badan modified proteins.
The emission maximum of FACI-24 without ligand added was 510 nm and titration with CoA, C4:0-, C8:0-, C12:0-, […], C16:0- and C20:0-CoA caused 0, 16, 34, 42, 46 and 46 nm downshift in emission maximum, respectively (results not shown). C16:0-CoA induced a 5,5 fold increase in emission at 464 nm (FIG. 10).
Titration of FACI with acyl-CoAs was done using a SPEX FLOUROLOG (Industries Inc, Edison N.J., USA) with excitation at 387 nm and emission at 460 nm, with both excitation and emission slits set to 4.5 nm. FACI (0.5-4.5 uM, as indicated) was dissolved in 1.5 ml binding buffer (10 mM HEPES 150 mM NaCl, 5 mM KCl, 1 mM Na2HPO4, pH 7.4) and titrated with a 10 μM acyl-CoA dissolved in binding buffer, with or without FACI added, as indicated. Fluorescence emission values (counts per second) measured without FACI added to the ligand stock solution were corrected for titrand dilution.

The target in assay [2] is T2, FACI53 (Bos taurus, UniProt P07107, A54C).
T2 construct: badan (6-bromoacetyl-2-dimethylaminonaphthalene) fluorophore on the introduced Cys-53; made in house; host or cells: E. coli BL21(DE3)pLysS, pET3a vector
T2 sequence (P07107 2-87 A54C): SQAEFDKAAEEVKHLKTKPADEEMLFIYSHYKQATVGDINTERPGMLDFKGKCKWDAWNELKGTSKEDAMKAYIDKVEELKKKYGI
The assay is described as follows: Fluorescence emission change of FACI-53 on titration with CoA and acyl-CoA esters. The class given is binding, bovine. As for the experimental part:
as §1, §2
Titration of FACI-53 dissolved in binding buffer with the above mentioned acyl-CoA esters produced a smooth downward shift in fluorescence emission maximum from 525 nm when no ligand was present to 508, 503, 490, 492, 496 and 514 with increasing concentrations of CoA, C4:0-, C8:0-, C12:0-, C16:0- and C20:0-CoA respectively.

The target in assay [3] is T2, FACI53. The assay is described as follows: Isoelectrical focusing of acyl-CoA binding to FACI53. Also noted: species or system bovine. Conditions: ligand in four-fold molar excess over protein. As for the experimental part: All the gels were prepared with ligands (1-7) in four-fold molar excess over protein. […] The protein-ligand complex shifted to a pl around 3.8. Legend: 1: Water, 2: CoA-SH, 3: C4-CoA, 4: C8-CoA, 5: C12-CoA, 6: C16-CoA, 7: C20-CoA, 8: Broad pl Calibration Kit (pH 3-10).
as §1, with “The concentration of acyl-CoA in the aqueous phase was determined from the fluorescence emission sensitivities at 495 and 470 nm repectively essentially by the method described by (Grynkiewickz et. al.,1985, J. Biol. Chem. 260, 3440-3450) according to which:” left out

A short description of assay [4]: Fluorescence response of the Phe-49_Cys49 badan derivative of bovine ACBP to ligands. Format: binding. Conditions: badan group exposed to the environment. On the procedure:
Reference is made to FIG. 2. and FIG. 3. which depict the emission spectra of FACI24 and FACI53 titrated with increasing concentrations of CoA, C4-, C8-, C12-, C16- and C20-CoA esters. The addition of ligand and measurement of emission of FACI24 and FACI53 was performed as described in example 2. The increased addition of ligand to the mutated and modified proteins caused a proportional spectral change. The normal physiological binding profile was confirmed by direct binding studies using isoelectrical focusing as predicted in FIG. 4. […] The results clearly indicate that fluorescence emission at 470 nm may provide a measure for the concentration of free unbound long-chain(>C12)-acyl-CoA ester.
The two sensors presented herein together act as high sensitivity sensors in the chain length range from C8-CoA to C20-CoA. […]
Quantitative determination of binding affinities (KD) were performed by isothermal titration micro calorimetry as previously described (Faergeman et. al., 1996; Biochemistry 35, 14118-14126). Qualitative evaluation of relative binding affinities were determined by isoelectrical focusing using the Pharmacia Fast Gel system according to the prescriptions given by the manufacture. […] The fluorescence emission was measured on a SPEX FLOUROLOG (Industries Inc, Edison N.J., USA) with excitation at 400 nm and emission scan from 400 nm to 550 nm. […]

Assay [5] can be described thus: Fluorescence titration emission spectra of FACI-46 (negative control). Format: binding.
Excerpt: The strategy behind the design of the mutants was based on the tertiary structure of the bovine ACBP/acyl-CoA complex. Both Met-24 and Ala-53 interact directly with the acyl-chain of the acyl-CoA ligand, interacting with the omega-methyl group of long acyl-chains. Positioning of an environmentally sensitive group in one of these positions would therefore be expected to create ligand sensitive probes. Met-46 which is located outside the hydrophobic binding pocket in the loop between helix 2 and 3 was chosen to serve as a negative control which should not be sensitive to ligand binding.
as §2

Consider `CCCCCCCCCCCCCCCCCCCC(=O)SCCNC(=O)CCNC(=O)[C@H](O)C(C)(C)COP(=O)(O)OP(=O)(O)OC[C@H]1O[C@@H](n2cnc3c(N)ncnc32)[C@H](O)[C@@H]1OP(=O)(O)O` [C20:0-CoA], for which, in assay [1], the “Downshift in emission maximum of FACI-24” value came to 46 nm. Moreover, in assay [2], the “Fluorescence response of FACI-53” value is reported as “hardly responded” and the “Magnitude of emission of FACI-53, fold increase” value was 0.8 fold. The “Fluorescence emission maximum of FACI-53 with ligand” value in assay [2] (525 nm when no ligand present, excitation 400 nm) was 514 nm. Besides, in assay [2] (emission at 495 nm), the “Relative emission of FACI-53 at 495 nm, fold increase” value is listed as 0.8 fold. For the same molecule, the “Binding to FACI53 by isoelectrical focusing” value in assay [3] is “shown to bind”.

B1: Phe-49_Cys49 badan derivative of bovine ACBP: Phe49 to Cys mutant of bovine ACBP labelled with badan, badan group exposed to the environment (conjugate, UniProt P07107 2-87, looked up, variant F49C)
Acyl-CoA-binding protein: SQAEFDKAAEEVKHLKTKPADEEMLFIYSHYKQATVGDINTERPGMLDCKGKAKWDAWNELKGTSKEDAMKAYIDKVEELKKKYGI
modifications: badan label
notes: Phe49 to Cys mutant of bovine ACBP labelled with badan, badan group exposed to the environment
For the molecule B1, the “Fluorescence response to addition of ligands” value in assay [4] is listed as “did not respond to addition of any of the ligands”.

B2: FACI-46: badan derivative of M46C-bovine ACBP, negative control (conjugate, UniProt P07107 2-87, looked up, variant M46C)
Acyl-CoA-binding protein: SQAEFDKAAEEVKHLKTKPADEEMLFIYSHYKQATVGDINTERPGCLDFKGKAKWDAWNELKGTSKEDAMKAYIDKVEELKKKYGI
modifications: badan label
notes: badan derivative of M46C-bovine ACBP, negative control
Regarding B2, the figures for the “Emission spectra changes of FACI-46 with ligands (words)” value in assay [5] and in assay [5] (listed as FACI46) were “did not show any emission spectra changes with any of the ligands” and “did not show changes in emission spectra with any of the tested ligands”, respectively.
